Values after ≈ are worked out from the molar mass of the structure shown. Active and inactive are the calls of the source. The calls are words filed in the database; no cut-off is given here.
Experiments:
[1] = target: T1, Acetylcholinesterase (Bos taurus) (UniProt P23795); assay: Inhibition of bovine AChE
T1 sequence (whole entry): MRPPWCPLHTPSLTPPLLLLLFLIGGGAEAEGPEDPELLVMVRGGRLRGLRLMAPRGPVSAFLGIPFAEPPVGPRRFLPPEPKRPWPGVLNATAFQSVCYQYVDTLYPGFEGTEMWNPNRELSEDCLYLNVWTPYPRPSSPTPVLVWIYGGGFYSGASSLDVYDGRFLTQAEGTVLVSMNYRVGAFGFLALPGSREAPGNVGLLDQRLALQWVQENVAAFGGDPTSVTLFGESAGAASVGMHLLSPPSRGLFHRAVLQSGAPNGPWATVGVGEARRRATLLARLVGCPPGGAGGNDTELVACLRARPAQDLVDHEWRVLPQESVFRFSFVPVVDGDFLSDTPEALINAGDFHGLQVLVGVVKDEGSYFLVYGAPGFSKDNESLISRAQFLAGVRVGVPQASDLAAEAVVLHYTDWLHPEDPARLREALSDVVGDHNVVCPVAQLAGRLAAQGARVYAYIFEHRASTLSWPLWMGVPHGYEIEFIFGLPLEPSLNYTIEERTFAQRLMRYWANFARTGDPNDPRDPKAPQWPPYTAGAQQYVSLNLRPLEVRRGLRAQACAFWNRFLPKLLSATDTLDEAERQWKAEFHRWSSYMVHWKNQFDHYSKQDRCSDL

[2] = system: Staphylococcus aureus; assay: Antibacterial activity against Staphylococcus aureus; type: functional, organism-based
[3] = system: Leishmania donovani; assay: Antileishmanial activity against Leishmania donovani after 72 hrs by alamar blue assay; type: functional, organism-based
[4] = target: Beta-secretase 1 (Homo sapiens) (UniProt P56817); assay: Inhibition of human recombinant BACE1 by FRET-based assay
[5] = system: Plasmodium falciparum; assay: Antimalarial activity after 72 hrs against chloroquine-resistant Plasmodium falciparum W2 in erythrocytes at […] by LDH reporter assay; type: functional, organism-based
[6] = system: Mycobacterium intracellulare; assay: Antibacterial activity against Mycobacterium intracellular by alamar blue assay; type: functional, organism-based
[7] = system: Staphylococcus aureus; assay: Antibacterial activity against methicillin-resistant Staphylococcus aureus; type: functional, organism-based
[8] = system: Vero; assay: Cytotoxicity against african green monkey Vero cells at 4.76 ug/mL by neutral red assay; type: cell-based; conditions: chlorocebus sabaeus
[9] = system: Plasmodium falciparum; assay: Antimalarial activity after 72 hrs against chloroquine-sensitive Plasmodium falciparum D6 in erythrocytes at […] by LDH reporter assay; type: functional, organism-based
[10] = system: Cryptococcus neoformans; assay: Antifungal activity against Cryptococcus neoformans; type: functional, organism-based
[11] = system: Plasmodium falciparum; assay: Antimalarial activity after 72 hrs against chloroquine-resistant Plasmodium falciparum W2 in erythrocytes by LDH reporter assay; type: functional, organism-based; conditions: W2, 72 h
[12] = system: Mycobacterium tuberculosis; assay: Antituberculosis activity against Mycobacterium tuberculosis H37Rv after 24 hrs by alamar blue assay; type: functional
[13] = system: Vero; assay: Cytotoxicity against african green monkey Vero cells by neutral red assay; type: cell-based; conditions: chlorocebus sabaeus
[14] = system: Plasmodium falciparum; assay: Antimalarial activity after 72 hrs against chloroquine-sensitive Plasmodium falciparum D6 in erythrocytes by LDH reporter assay; type: functional, organism-based; conditions: D6, 72 h
[15] = target: Glycogen synthase kinase-3 beta (Homo sapiens) (UniProt P49841); assay: Inhibition of human recombinant GSK3-beta assessed as incorporation of [33P]gammaATP into G2S peptide at 25 uM
[16] = system: Human immunodeficiency virus 1; assay: Antiviral activity against HIV1 3B assessed as reverse transcriptase activity by enzyme immunoassay; type: functional, organism-based; conditions: Human immunodeficiency virus 1, 3B
[17] = system: Leishmania donovani; assay: Antileishmanial activity against Leishmania donovani at 40 ug/mL after 72 hrs by alamar blue assay; type: functional, organism-based

Sequence of Beta-secretase 1 (Homo sapiens) (P56817 whole entry): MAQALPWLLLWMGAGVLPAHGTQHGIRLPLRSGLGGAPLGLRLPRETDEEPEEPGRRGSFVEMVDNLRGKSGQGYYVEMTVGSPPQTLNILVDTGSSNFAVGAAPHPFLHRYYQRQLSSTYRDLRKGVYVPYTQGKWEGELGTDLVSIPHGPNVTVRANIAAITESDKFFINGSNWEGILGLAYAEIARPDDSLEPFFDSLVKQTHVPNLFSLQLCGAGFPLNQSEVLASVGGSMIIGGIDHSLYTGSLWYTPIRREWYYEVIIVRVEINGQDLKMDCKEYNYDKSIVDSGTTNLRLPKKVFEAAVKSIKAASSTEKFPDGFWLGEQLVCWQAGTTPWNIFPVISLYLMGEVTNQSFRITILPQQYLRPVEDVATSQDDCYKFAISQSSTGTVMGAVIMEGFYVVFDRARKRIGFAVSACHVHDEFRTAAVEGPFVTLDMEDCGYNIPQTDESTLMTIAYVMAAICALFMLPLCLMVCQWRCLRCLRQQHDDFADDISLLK
Sequence of Glycogen synthase kinase-3 beta (Homo sapiens) (P49841 whole entry, looked up): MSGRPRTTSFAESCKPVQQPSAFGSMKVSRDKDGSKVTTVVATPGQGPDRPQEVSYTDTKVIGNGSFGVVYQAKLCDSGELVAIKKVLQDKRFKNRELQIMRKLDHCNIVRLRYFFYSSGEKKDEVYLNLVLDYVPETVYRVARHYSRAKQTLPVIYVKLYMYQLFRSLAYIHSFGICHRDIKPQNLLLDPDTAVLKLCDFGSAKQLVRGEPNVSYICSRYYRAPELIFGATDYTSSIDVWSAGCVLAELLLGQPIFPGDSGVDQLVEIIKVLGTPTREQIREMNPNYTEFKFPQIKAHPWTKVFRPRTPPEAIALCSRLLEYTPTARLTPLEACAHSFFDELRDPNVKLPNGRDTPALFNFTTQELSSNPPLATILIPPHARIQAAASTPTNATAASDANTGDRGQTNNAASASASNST

| Structure (SMILES) | Activity [1] | Activity [2] | IC50 [3] | IC90 [3] | Activity [4] | Activity [5] | Activity [6] | Activity [7] | Activity [8] | Activity [9] | Activity [10] | IC50 [11] | MIC [12] | IC50 [6] | IC50 [14] | IC50 [16] | also measured |
| --- | --- | --- | --- | --- | --- | --- | --- | --- | --- | --- | --- | --- | --- | --- | --- | --- | --- |
| O=C1CC[C@H]2C[C@]34CN5CCCC/C=C\CC[C@@]6(C=C(c7nccc8c7[nH]c7ccccc78)[C@@H]3CC5)O[C@H](CC1)N2[C@H]46 | inactive | inactive | 18 µg/mL (≈ 32 µM) | 40 µg/mL (≈ 71.1 µM) | inactive | inactive | inactive | inactive | Non-toxic | inactive | inactive |  |  |  |  |  |  |
| Oc1ccc2[nH]c3c(C4=C[C@@]5(O)CC/C=C\CCCCN6CC[C@@H]4[C@]4(C[C@@H]7/C=C\CCCCN7[C@H]45)C6)nccc3c2c1 [MANZAMINE Y] | inactive |  | 1.6 µg/mL (≈ 2.83 µM) | 8 µg/mL (≈ 14.2 µM) | inactive |  |  |  |  |  | inactive | 0.85 µg/mL (≈ 1.51 µM) | 5.2 µg/mL (≈ 9.21 µM) | 3.5 µg/mL (≈ 6.2 µM) | 0.42 µg/mL (≈ 0.744 µM) |  | IC50 [2]: 15 µg/mL (≈ 26.6 µM); IC50 [13]: 3.9 µg/mL (≈ 6.91 µM); IC50 [7]: 15 µg/mL (≈ 26.6 µM); inhibition [15]: 74.3% |
| O=CC1=C[C@]23CC/C=C\CCCCN4CC[C@@H]1[C@]1(C[C@@H]5/C=C\CCC[C@@H](O2)N5[C@H]13)C4 | inactive |  |  |  | inactive |  |  |  |  |  |  |  |  |  |  |  |  |
| O=C1CCCN2[C@@H](CC1)C[C@]13CN4CCCC/C=C\CC[C@](O)(C=C(c5nccc6c5[nH]c5c(O)cccc56)C1CC4)[C@H]23 (stereo partly specified) [MANZAMINE F] | inactive | inactive | 4.2 µg/mL (≈ 7.23 µM) | 7 µg/mL (≈ 12.1 µM) | inactive |  |  | inactive | Non-toxic |  |  | 1.7 µg/mL (≈ 2.93 µM) | 2.6 µg/mL (≈ 4.48 µM) | 6.25 µg/mL (≈ 10.8 µM) | 0.78 µg/mL (≈ 1.34 µM) | 7.3 µg/mL (≈ 12.6 µM) | IC50 [10]: 6.5 µg/mL (≈ 11.2 µM); inhibition [15]: 29.9% |
| C1=C\CC[C@]23CN4CCCC/C=C\CC[C@@]5(O[C@H]5[C@@H](c5nccc6c5[nH]c5ccccc56)[C@@H]2CC4)[C@@H]3NCCCC/1 | inactive |  |  |  | inactive |  |  |  |  |  |  |  |  |  |  |  |  |
| CO[C@H]1/C=C/O[C@@]2(C)Oc3c(C)c(O)c4c(O)c(c(/C=N/N5CCN(C)CC5)c(O)c4c3C2=O)NC(=O)/C(C)=C\C=C\[C@H](C)[C@H](O)[C@@H](C)[C@@H](O)[C@@H](C)[C@H](OC(C)=O)[C@@H]1C [RIFAMPIN] |  |  |  |  |  |  |  |  |  |  |  |  | 0.5 µg/mL (≈ 0.608 µM) |  |  |  |  |
| C1=C(c2[nH]ccc3c4ccccc4nc2-3)[C@@H]2CCN3CCCC/C=C\CC[C@]14O[C@@H]1CCC/C=C\[C@H]5C[C@@]2(C3)[C@H]4N51 [12,28-OXAMANZAMINE A] | inactive | inactive | 7.8 µg/mL (≈ 14.3 µM) | 50 µg/mL (≈ 91.4 µM) | inactive | inactive | inactive | inactive | Non-toxic | inactive | inactive |  |  |  |  | 22.2 µg/mL (≈ 40.6 µM) |  |
| O=C1CCCN2[C@@H]3[C@@]45CN6CCCC/C=C\CC[C@@]3(C=C(c3nccc7c3[nH]c3ccccc37)[C@@H]4CC6)O[C@]2(CC1)C5 | inactive | inactive |  |  | inactive | inactive | inactive | inactive | Non-toxic | inactive | inactive |  |  |  |  | 17.5 µg/mL (≈ 31.1 µM) | Activity [17]: inactive |
| O=C1CCCN2[C@@H](CC1)C[C@]13CN4CCCC/C=C\CC[C@](O)(C=C(c5nccc6c5[nH]c5ccccc56)C1CC4)[C@H]23 (stereo partly specified) [MANZAMINE E] | inactive | inactive | 3.8 µg/mL (≈ 6.73 µM) | 6.8 µg/mL (≈ 12 µM) | inactive |  |  | inactive | Non-toxic |  | inactive | 4.76 µg/mL (≈ 8.43 µM) | 3.8 µg/mL (≈ 6.73 µM) | 12.5 µg/mL (≈ 22.1 µM) | 3.4 µg/mL (≈ 6.02 µM) | 13.1 µg/mL (≈ 23.2 µM) | inhibition [15]: 53.6% |
| O=C1CCCN2[C@@H]3[C@@]45CN6CCCC/C=C\CC[C@@]3(C=C(c3nccc7c3[nH]c3ccc(O)cc37)[C@@H]4CC6)O[C@]2(CC1)C5 | inactive | inactive |  |  | inactive | inactive | inactive | inactive | Non-toxic | inactive | inactive |  |  |  |  |  | Activity [17]: inactive |
| O=C1CCCN2[C@@H](CC1)C[C@]13CN4CCCC/C=C\CC[C@](O)(C=C(c5nccc6c5[nH]c5ccc(O)cc56)[C@@H]1CC4)[C@H]23 | inactive |  | 2.5 µg/mL (≈ 4.3 µM) | 4.3 µg/mL (≈ 7.4 µM) | inactive |  |  |  | Non-toxic |  |  | 0.87 µg/mL (≈ 1.5 µM) | 0.4 µg/mL (≈ 0.689 µM) | 3.5 µg/mL (≈ 6.03 µM) | 0.78 µg/mL (≈ 1.34 µM) |  | IC50 [13]: 4.3 µg/mL (≈ 7.4 µM); IC50 [10]: 5.5 µg/mL (≈ 9.47 µM) |

From ChEMBL document CHEMBL1142603, “Manzamine B and E and ircinal A related alkaloids from an Indonesian Acanthostrongylophora sponge and their activity against infectious, tropical parasitic, and Alzheimer's diseases” (J Nat Prod, 2006)
